Experimental data published in patent publication US12281083B2, “2-substituted amino-naphth (1,2-d) imidazol-5-one compounds of pharmaceutically acceptable salts thereof” (PTC Therapeutics, Inc., priority 2016, dated 2025).

What follows are molecules tested on Friedreich ataxia patient-derived human dermal fibroblasts (assay: Cell viability evaluation test using human dermal fibroblasts derived from a Friedreich ataxia patient (BSO stress)). Details: Fibroblast, rescue of cell viability, 30 μM BSO, 48 hours, Calcein-AM fluorescence, no BSO = 100%, BSO only = 0%.
Assay type: cell-based
Experimental: Cell Viability Evaluation Test Using Human Dermal Fibroblasts Derived from a Friedreich Ataxia Patient
Compounds described herein were tested for their ability to rescue Friedreich ataxia patient-derived dermal fibroblasts stressed by the addition of L-buthionine-(S,R)-sulfoximine (BSO).
A MEMα medium and a Medium 199 medium were obtained from Thermo Scientific, and fetal bovine serum was obtained from DS Pharma. Basic fibroblast growth factor (b-FGF) was purchased from Funakoshi Co., Ltd. and epidermal growth factor (EGF) was purchased from PeproTech Inc. L-Buthionine-(S,R)-sulfoximine and bovine pancreas-derived insulin were purchased from Sigma. Calcein-AM was purchased from DOJINDO. An assay medium is a medium of 64% MEMα medium and 25% Medium 199 medium, and contains 10% fetal bovine serum, EGF whose final concentration is 10 ng/ml, 10 ng/ml of bFGF, and 10 μg/mL insulin. Cells were purchased from Coriell Institute.
A test compound was dissolved in DMSO to make a 1 mM or 10 mM stock solution. From this stock solution, serially diluted solutions were further prepared using DMSO and used in an assay.
Friedreich ataxia patient-derived human dermal fibroblasts were suspended in an assay medium, seeded into a 384-well plate at 650 cells/well/20 μl, and incubated at 37° C. in a 5% carbon dioxide incubator overnight. A test compound solution prepared in an assay medium from the serially diluted solution (DMSO) at 5 times higher than the final concentration was added in 10 μL per well of the cell-seeded plate. Then, 10 μL of 150 μM BSO solution was added. The amount of a reaction solution was adjusted to be finally 50 μL, and the final BSO concentration was made at 30 μM. The plate was incubated at 37° C. in 5% CO2 for 48 hours, and then media were removed from all wells, and 20 μl of a Calcein-AM solution, which had been 550-fold diluted by PBS, was added to each well. The plate was incubated at 37° C. for 20 to 30 minutes, and then fluorescence (485 nm/525 nm of excitation/radiation wavelength) was measured by a fluorescence plate reader.
The degree of the viability of fibroblasts that were not treated with BSO was regarded as 100%, the degree of the viability of cells that were treated with BSO only (without a compound) was regarded as 0%, and the viability of cells that were treated with a compound was calculated.

Point of comparison: `CCOc1ccc(C2=C3N=C(N(C)C)N=C3c3ccccc3C2=O)c(C)c1` [Example 63], EC50 18.4 nM. Against it:
- COc1ccc(C2=C3N=C(N(C)C)N=C3c3ccccc3C2=O)cc1 [Example 1, 2-(Dimethylamino)-4-(4-methoxyphenyl)-5H-naphth[1,2-d]imidazol-5-one] — higher, 20 to 100 nM
- Cc1ccc(C2=C3N=C(N(C)C)N=C3c3ccccc3C2=O)cc1 [Example 2] — within 1.5-fold, 17 nM
- COc1ccc(C2=C3N=C(N(C)C)N=C3c3ccccc3C2=O)cn1 [Example 3] — not separable, < 20 nM
- Cc1ccccc1C1=C2N=C(N(C)C)N=C2c2ccccc2C1=O [Example 4] — 5-fold lower, 3.7 nM
- CN(C)C1=NC2=C(c3ccccc3F)C(=O)c3ccccc3C2=N1 [Example 5] — within 1.5-fold, 14 nM
- COc1ccc(C2=C3N=C(N(C)C)N=C3c3ccccc3C2=O)c(F)c1 [Example 8] — 1.8-fold lower, 10 nM
- COc1ccccc1C1=C2N=C(N(C)C)N=C2c2ccccc2C1=O [Example 10] — 3.6-fold lower, 5.1 nM
- CN(C)C1=NC2=C(c3ccccc3N3CCOCC3)C(=O)c3ccccc3C2=N1 [Example 11] — 2.9-fold lower, 6.4 nM
- COc1cccc(F)c1C1=C2N=C(N(C)C)N=C2c2ccccc2C1=O [Example 12] — 2.9-fold lower, 6.4 nM
- CN(C)C1=NC2=C(c3ccccc3N3CCCC3)C(=O)c3ccccc3C2=N1 [Example 13] — 3.4-fold lower, 5.4 nM
- CN(C)C1=NC2=C(c3cccc4cccnc34)C(=O)c3ccccc3C2=N1 [Example 14] — 2.2-fold higher, 41 nM
- Cc1cccc(C2=C3N=C(N(C)C)N=C3c3ccccc3C2=O)c1 [Example 15] — 3.1-fold lower, 6 nM
- COc1ccc(C2=C3N=C(N(C)C)N=C3c3ccccc3C2=O)c(C)c1 [Example 16] — 2-fold lower, 9.1 nM
- CN(C)C1=NC2=C(c3ccccc3N(C)C)C(=O)c3ccccc3C2=N1 [Example 17] — 2.2-fold lower, 8.5 nM
- CN(C)C1=NC2=C(c3ccccc3C(F)(F)F)C(=O)c3ccccc3C2=N1 [Example 20] — lower, < 3 nM
- Cc1cc(F)ccc1C1=C2N=C(N(C)C)N=C2c2ccccc2C1=O [Example 21] — 2.3-fold lower, 7.9 nM
- Cc1cc(C(F)(F)F)ccc1C1=C2N=C(N(C)C)N=C2c2ccccc2C1=O [Example 23] — 3.1-fold lower, 5.9 nM
- Cc1cc(OC(F)(F)F)ccc1C1=C2N=C(N(C)C)N=C2c2ccccc2C1=O [Example 26] — 2.6-fold lower, 7.2 nM
- Cc1cnccc1C1=C2N=C(N(C)C)N=C2c2ccccc2C1=O [Example 28] — 3.8-fold lower, 4.8 nM
- COc1ccc(C2=C3N=C(N(C)C)N=C3c3ccccc3C2=O)c(C(F)(F)F)c1 [Example 31] — within 1.5-fold, 15 nM
- Cc1ccncc1C1=C2N=C(N(C)C)N=C2c2ccccc2C1=O [Example 32] — 3.1-fold lower, 6 nM
- CN(C)C1=NC2=C(c3ccccc3Cl)C(=O)c3ccccc3C2=N1 [Example 33] — within 1.5-fold, 16 nM
- Cc1ncccc1C1=C2N=C(N(C)C)N=C2c2ccccc2C1=O [Example 34] — 2.6-fold lower, 7 nM
- Cc1nn(C)c(C)c1C1=C2N=C(N(C)C)N=C2c2ccccc2C1=O [Example 35] — 7.4-fold lower, 2.5 nM
- Cc1cc(C#N)ccc1C1=C2N=C(N(C)C)N=C2c2ccccc2C1=O [Example 36] — 1.9-fold lower, 9.5 nM
- CN(C)C1=NC2=C(c3cnn(C)c3)C(=O)c3ccccc3C2=N1 [Example 38] — within 1.5-fold, 18.8 nM
- Cc1noc(C)c1C1=C2N=C(N(C)C)N=C2c2ccccc2C1=O [Example 39] — 3-fold lower, 6.1 nM
- CN(C)C1=NC2=C(c3ccc(N4CCOCC4)cc3)C(=O)c3ccccc3C2=N1 [Example 40] — 1.6-fold lower, 11.6 nM
- CN(C)C(=O)c1cccc(C2=C3N=C(N(C)C)N=C3c3ccccc3C2=O)c1 [Example 41] — within 1.5-fold, 12.9 nM
- CN(C)C1=NC2=C(c3nn(C)c4ccccc34)C(=O)c3ccccc3C2=N1 [Example 42] — 3.6-fold lower, 5.1 nM
- COCc1cccc(C2=C3N=C(N(C)C)N=C3c3ccccc3C2=O)c1 [Example 43] — within 1.5-fold, 20.1 nM
- Cc1ccc(C2=C3N=C(N(C)C)N=C3c3ccccc3C2=O)c(C)c1 [Example 44] — within 1.5-fold, 17 nM
- CCN(CC)C1=NC2=C(c3c(C)noc3C)C(=O)c3ccccc3C2=N1 [Example 46] — within 1.5-fold, 14.9 nM
- Cc1noc(C)c1C1=C2N=C(N3CCOCC3)N=C2c2ccccc2C1=O [Example 47] — 3.8-fold lower, 4.9 nM
- CCN(CC)C1=NC2=C(c3cccc4cn[nH]c34)C(=O)c3ccccc3C2=N1 [Example 51] — 1.6-fold lower, 11.8 nM
- CN(C)C1=NC2=C(c3ccc4cnn(C)c4c3)C(=O)c3ccccc3C2=N1 [Example 56] — within 1.5-fold, 14.5 nM
- CC(=O)Nc1cccc(C2=C3N=C(N(C)C)N=C3c3ccccc3C2=O)c1 [Example 59] — 4.6-fold lower, 4 nM
- Cc1cc(N2CCN(C)CC2)ccc1C1=C2N=C(N(C)C)N=C2c2ccccc2C1=O [Example 62] — 3.3-fold lower, 5.5 nM
- CCN(CC)C(=O)c1ccccc1C1=C2N=C(N(CC)CC)N=C2c2ccccc2C1=O [Example 68] — 2.2-fold higher, 40.5 nM
- CN(C)C1=NC2=C(c3ccccc3C#N)C(=O)c3ccccc3C2=N1 [Example 71, 2-[(2-dimethylamino)-5-oxo-5H-naphth[1,2-d]imidazol-4-yl]benzonitrile] — within 1.5-fold, 15 nM
- CN(C)C1=NC2=C(c3ccc(N(C)C)cc3)C(=O)c3ccccc3C2=N1 [Example 72] — higher, 20 to 100 nM
- CN(C)C1=NC2=C(c3ccccc3N3CCNCC3)C(=O)c3ccccc3C2=N1 [Example 73] — 2.6-fold lower, 7.2 nM
- CC(C)N1CCN(c2ccc(C3=C4N=C(N(C)C)N=C4c4ccccc4C3=O)cc2)CC1 [Example 74] — lower, < 3 nM
- Cc1nn(C)cc1C1=C2N=C(N(C)C)N=C2c2ccccc2C1=O [Example 75] — 1.5-fold lower, 12.1 nM
- Cc1c(C2=C3N=C(N(C)C)N=C3c3ccccc3C2=O)cnn1-c1ccccc1 [Example 76] — within 1.5-fold, 20.3 nM
- CN(C)C1=NC2=C(c3ccc4c(c3)OCCN4C)C(=O)c3ccccc3C2=N1 [Example 77] — within 1.5-fold, 17 nM
- Cc1nc(-c2ccccc2)sc1C1=C2N=C(N(C)C)N=C2c2ccccc2C1=O [Example 78] — higher, > 100 nM
- CN(C)C1=NC2=C(c3ccc4c(c3)OCCCO4)C(=O)c3ccccc3C2=N1 [Example 79] — 2.1-fold higher, 39.1 nM
- CN1CCN(c2ccc(C3=C4N=C(N(C)C)N=C4c4ccccc4C3=O)cc2)CC1 [Example 80] — 1.8-fold lower, 10 nM
- COc1ccc(C2=C3N=C(N(C)C)N=C3c3ccccc3C2=O)c(Cl)c1 [Example 82] — within 1.5-fold, 16.5 nM
- COc1ccc(C)c(C2=C3N=C(N(C)C)N=C3c3ccccc3C2=O)c1 [Example 83] — within 1.5-fold, 18.3 nM
- COc1ccc(Cl)c(C2=C3N=C(N(C)C)N=C3c3ccccc3C2=O)c1 [Example 86] — within 1.5-fold, 14.9 nM
- COc1cccc(C2=C3N=C(N(C)C)N=C3c3ccccc3C2=O)c1C [Example 87] — within 1.5-fold, 17.1 nM
- CCN(CC)C1=NC2=C(c3cccc(OC)c3C)C(=O)c3ccccc3C2=N1 [Example 88] — within 1.5-fold, 17.1 nM
- CC(=O)c1ccc(C2=C3N=C(N(C)C)N=C3c3ccccc3C2=O)c(C)c1 [Example 89] — within 1.5-fold, 14.3 nM
- COc1ccc(F)c(C2=C3N=C(N(C)C)N=C3c3ccccc3C2=O)c1 [Example 90] — within 1.5-fold, 14 nM
- COc1cccc(C2=C3N=C(N(C)C)N=C3c3ccccc3C2=O)c1F [Example 92] — 1.6-fold higher, 30.2 nM
- CCN(CC)C1=NC2=C(c3cccc(OC)c3F)C(=O)c3ccccc3C2=N1 [Example 93] — 1.6-fold higher, 29.1 nM
- COc1cccc(C2=C3N=C(N(C)C)N=C3c3ccccc3C2=O)c1Cl [Example 94] — within 1.5-fold, 22.6 nM
